Assays:
[1] = target: T1, Mitogen-activated protein kinase kinase kinase 5 (Homo sapiens) (UniProt Q99683); assay: Inhibition of ASK1 assessed as phosphorylated fluorescent peptide at 10 uM by mobility shift assay
T1 sequence (whole entry): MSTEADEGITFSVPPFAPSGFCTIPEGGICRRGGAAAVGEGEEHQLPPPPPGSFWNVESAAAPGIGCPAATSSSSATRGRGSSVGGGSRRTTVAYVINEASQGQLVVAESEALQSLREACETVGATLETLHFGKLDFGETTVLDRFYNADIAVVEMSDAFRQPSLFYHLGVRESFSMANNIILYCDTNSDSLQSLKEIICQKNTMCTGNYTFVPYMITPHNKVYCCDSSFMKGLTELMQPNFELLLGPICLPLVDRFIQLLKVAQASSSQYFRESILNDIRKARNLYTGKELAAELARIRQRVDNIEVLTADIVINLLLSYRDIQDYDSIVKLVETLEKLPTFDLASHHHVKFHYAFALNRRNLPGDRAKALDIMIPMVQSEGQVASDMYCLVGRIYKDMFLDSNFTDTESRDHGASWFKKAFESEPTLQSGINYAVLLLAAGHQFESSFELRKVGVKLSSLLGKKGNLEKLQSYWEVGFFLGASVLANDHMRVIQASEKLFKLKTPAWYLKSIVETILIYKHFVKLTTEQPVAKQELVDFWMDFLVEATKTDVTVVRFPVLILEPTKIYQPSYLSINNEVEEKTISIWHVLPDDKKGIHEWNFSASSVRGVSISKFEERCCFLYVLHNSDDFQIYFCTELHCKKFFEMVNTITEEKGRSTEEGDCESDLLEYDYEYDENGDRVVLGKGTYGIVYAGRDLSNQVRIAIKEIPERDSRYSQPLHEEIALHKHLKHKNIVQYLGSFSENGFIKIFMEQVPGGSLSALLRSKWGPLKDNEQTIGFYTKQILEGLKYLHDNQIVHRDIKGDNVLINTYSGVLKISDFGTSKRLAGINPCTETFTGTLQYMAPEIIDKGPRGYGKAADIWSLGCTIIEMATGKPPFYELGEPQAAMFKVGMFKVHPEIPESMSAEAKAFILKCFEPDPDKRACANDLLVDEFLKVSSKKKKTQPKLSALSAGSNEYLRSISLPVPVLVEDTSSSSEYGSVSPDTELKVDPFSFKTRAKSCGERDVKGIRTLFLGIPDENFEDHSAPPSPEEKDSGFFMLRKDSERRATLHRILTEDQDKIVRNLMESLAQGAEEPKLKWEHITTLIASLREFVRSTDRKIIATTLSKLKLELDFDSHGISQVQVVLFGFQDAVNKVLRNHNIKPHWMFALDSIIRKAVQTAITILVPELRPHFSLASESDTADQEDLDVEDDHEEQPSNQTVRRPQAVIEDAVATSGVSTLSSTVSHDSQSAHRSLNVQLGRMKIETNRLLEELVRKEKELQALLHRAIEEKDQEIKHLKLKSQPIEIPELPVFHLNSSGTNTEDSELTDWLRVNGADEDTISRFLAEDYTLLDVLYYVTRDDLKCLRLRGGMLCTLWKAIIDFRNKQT

[2] = target: T2, Mitogen-activated protein kinase kinase kinase 5 (Homo sapiens, UniProt Q99683); assay: Inhibition of ASK1 assessed as phosphorylated fluorescent peptide by mobility shift assay
T2 sequence (Q99683 whole entry): T1 sequence (whole entry)

Row | SMILES | inhibition [1] | IC50 [2]
1 | CN(C)c1ncnc2nc[nH]c12 | > 30% | 
2 | COc1cccc(C(=O)NN2CC(=O)C(c3nc4ccccc4c(=O)[nH]3)=C2N)c1 | > 30% | 
3 | Cc1c(C)n(C2CCCC2)c2nc[nH]c(=O)c12 | > 30% | 
4 | Nc1nc(N)c2c(Cl)c(Br)ccc2n1 | > 30% | 
5 | Nc1nc(SCCCCC(O)O)c2nc[nH]c2n1 | > 30% | 
6 | CNc1nc(-c2cccnc2)cn2ccnc12 | > 30% | 
7 | CCNc1nc(N)c(C(C)=O)s1 | > 30% | 
8 | O=C(Nc1ccc(N2CCOCC2)cc1)c1n[nH]c2ccccc12 | > 30% | 
9 | COc1ccc(OC)c(Nc2nc(N)nc3[nH]cnc23)c1 | > 50% | 18.9 µM
10 | NC(=O)c1ccc(-n2cnc3ccccc32)cc1 | > 30% | 
11 | O=C(Nc1nc2ccccc2[nH]1)c1ccc2ncsc2c1 | > 30% | 
12 | Nc1nc(SCc2c(Cl)cccc2Cl)c2nc[nH]c2n1 | > 30% | 
13 | Cc1c(C)n(CC(C)C)c2ncnc(N)c12 | > 30% | 
14 | Nc1nc(OCc2ccccc2)c2nc[nH]c2n1 | > 30% | 
15 | Nc1nc(OCC2CCCCC2)c2nc[nH]c2n1 | > 50% | 
16 | CSc1nc(N)nc2[nH]cnc12 | > 50% | 13.3 µM
17 | CC(C)(C)c1ccc(C(=O)Nc2cn3cc(-n4ccnc4)ccc3n2)cc1 |  | 0.014 µM
18 | CC(C)(C)c1ccc(C(=O)Nc2cn3c(ccc4ccccc43)n2)cc1 |  | 0.015 µM
19 | CCCN(CCC)c1[nH]cnc2ncnc1-2 | > 50% | 25.8 µM
20 | c1nc(N2CCCCC2)c2nc[nH]c2n1 | > 50% | 17 µM
21 | CNc1nc(N)c(C(=O)c2ccc(F)cc2)s1 | > 30% | 
22 | CS(=O)(=O)c1ccc(C(=O)Nc2nc3ccccc3[nH]2)cc1[N+](=O)[O-] | > 30% | 
23 | Nc1nc(Nc2cccc3ccccc23)c2nc[nH]c2n1 | > 30% | 
24 | CC(C)(C(=O)O)c1ccc(C(=O)Nc2cn3cc(-c4ccsc4)ccc3n2)cc1 |  | 0.019 µM
